In US9173864B2, “Treatment and/or prevention of inner ear conditions by modulation of a metabotropic glutamate receptor” (House Ear Institute, priority 2008, dated 2015):

Test system: patients with symptoms of presbycusis
Test: Administration of FTIDC to patients with presbycusis (Example 5)
Format: in vivo, human
Conditions: person; for hearing threshold, left ear / hearing threshold, right ear: after 14 days
Method: A person presents with symptoms of presbycusis, including moderate loss of higher frequency (above 2000 Hz) hearing (50 decibel threshold) in both ears. The person is administered two drops per ear twice daily of a topical otic formulation comprising 10 ug/ml of FTIDC in a phosphate-buffered saline and further comprising 0.25% the carboxyvinyl water swellable gelling agent, Carbopol 934P; i.e., about […] of FTIDC per ear per dosing. After 14 days, the patient is tested by an audiologist. The threshold is lowered to 35 decibels right ear and 40 decibels left ear.
A person presents with symptoms of presbycusis, including loss of moderately high frequency (above 1000 Hz) hearing (40 decibel threshold right ear and 35 decibel threshold left ear). The person is administered an oral formulation 4 times per day comprising 2 ug per dose of FTIDC. The extended release capsule comprises a matrix of 10% by weight hydroxypropyl methylcellulose (e.g., Methocel®; Dow Chemical Company, U.S.A), and 50% by weight of a cornstarch filler. After 14 days, the threshold is lowered to 35 decibels right ear and 25 decibels left ear.
A person presents with symptoms of presbycusis, including loss of hearing in the 500 to above 2000 Hz range. The person is implanted with an Alset® osmotic pump adapted for cochlear delivery; see e.g., Richardson, R. T., Noushi, F., O'Leary, S. Inner ear therapy for neural preservation. AUDIOLOGY AND NEURO-OTOLOGY 2006; 11(6): 343-356. The pump is supplied with an aqueous sterile solution comprising FTIDC. The pump delivers a dose of 10 ug/hour of the modulator.

[1] = higher frequency (above 2000 Hz) loss, 50 decibel threshold before, topical otic drops 10 ug/ml twice daily

Cc1c(C2=CCN(C(=O)N(C)C(C)C)CC2)nnn1-c1cccnc1F [FTIDC, 4-[1-(2-fluoropyridin-3-yl)-5-methyl-1H-1,2,3-triazol-4-yl]-N-isopropyl-N-methyl-3,6-dihydropyridine-1(2H)-carboxamide]
hearing threshold, left ear (above 1000 Hz loss, 35 decibel threshold before, oral extended release capsule 2 ug per dose 4 times per day): 25 decibels | hearing threshold, right ear (above 1000 Hz loss, 40 decibel threshold before, oral extended release capsule 2 ug per dose 4 times per day): 35 decibels | hearing threshold, left ear [1]: 40 decibels | hearing threshold, right ear [1]: 35 decibels | hearing (loss in 500 to above 2000 Hz range, osmotic pump cochlear delivery 10 ug/hour, after 10 days): hearing is improved in both ears
